What was measured:
[1] = system: luciferase reporter under the control of an HIF-responsive sequence in HCT 116 cells; experiment: HIF luciferase assay; assay type: cell-based; conditions: Homo sapiens, HCT 116 reporter cells, hypoxia chamber (1% O2), 24 h
Experimental: HCT 116 cells were stably transfected with a plasmid which contained a luciferase reporter under the control of an HIF-responsive sequence. These cells were sown in microtitre plates [20 000 cells/cavity in RPMI 1640 medium with 10% foetal calf serum (FCS) and 100 μg/ml of hygromycin]. They were incubated overnight under standard conditions (5% CO2, 21% O2, 37° C., moistened). The following morning the cells were incubated with different concentrations of the test substances (0-10 μmol/l) in a hypoxia chamber (1% O2). After 24 h, Bright Glo reagent (Promega, Wis., USA) was added in accordance with the manufacturer's instructions, and after 5 min the luminescence was measured. Cells which were incubated under normoxia served as background controls.

[2] = Pharmacokinetic parameters after peroral administration in rats; assay type: in vivo; conditions: for AUCnorm (dose-normalized exposure) / bioavailability: 1-3 mg/kg, solution in Solutol/ethanol/water; for bioavailability: rat, plasma, po, read-out: F (bioavailability)
Experimental: (§1) The substance to be examined was administered to animals (for example mice or rats) intravenously as a solution (for example in corresponding plasma with a small addition of DMSO or in a PEG/ethanol/water mixture), and peroral administration was effected as a solution (for example in Solutol/ethanol/water or PEG/ethanol/water mixtures) or as a suspension (e.g. in tylose), in each case via a gavage. After administration of the substance, blood was taken from the animals at fixed times. The blood was heparinized, then plasma was obtained therefrom by centrifugation. The substance was quantified analytically in the plasma via LC-MS/MS. From the plasma concentration/time plots determined in this way, using an internal standard and with the aid of a validated computer program, the pharmacokinetic parameters, such as AUC (area under the concentration/time curve), Cmax, (maximum plasma concentration), t1/2 (half life), VSS (distribution volume) and CL (clearance), and the absolute and relative bioavailability F and Frei (i.v./p.o. comparison or comparison of suspension to solution after p.o. administration), were calculated.
To determine the active ingredient release from a prodrug compound, the prodrug was administered either intravenously or perorally, as described above, and the concentrations both of the prodrug and of the active ingredient released were quantified in the processed plasma.
The substance to be examined was administered perorally to rats, in each case in amounts between 1 and 3 mg/kg as a solution in Solutol/ethanol/water (40:10:50 or 40:20:40). The kinetic parameters determined for Working Example 1 are shown below by way of example for the inventive compounds [AUCnorm=dose-normalized exposure (area under the concentration/time curve)]:
The second row in this table gives the pharmacokinetic parameters for Example 1, as obtained after peroral administration of the prodrug compound from Example 15 (1 mg/kg of crystalline substance as a tylose suspension in water).

[3] = pH-dependent hydrolysis stability; assay type: physicochemical; conditions: HPLC area %; for % Example 1 active ingredient: released from prodrug Example 15
Experimental: 0.3 mg of the test substance (prodrug) was weighed into a 2 ml HPLC vial, and 0.6 ml of acetonitrile or acetonitrile/DMSO mixture (with up to 20 percent by volume of DMSO) was added. To dissolve the substance, the sample vessel was placed into an ultrasound bath for approx. 10 seconds. Subsequently, 1.0 ml of the particular aqueous buffer solution was added (commercially available buffer solutions of pH 2, 4, 6.5, 8 and 10) and the sample was treated again in the ultrasound bath. Over a period of 24 hours at 37° C., 5 μl of the sample solution were analysed by HPLC every hour for its content of unchanged prodrug or active ingredient released therefrom by hydrolysis. Quantification was effected via the area percentages of the corresponding HPLC peaks.

[4] = Pharmacokinetic parameters after intravenous administration in rats; assay type: in vivo; conditions: rat, plasma, i.v., comparison compound, read-out: CLplasma (plasma clearance) (converted)
Experimental: as §1
The substance to be examined was administered intravenously to rats, in each case in amounts between 0.3 and 1.0 mg/kg as a solution in plasma which contained up to 2% DMSO.

[5] = Plasma stability in vitro, rat plasma; assay type: in vitro ADME; conditions: 37°C
Experimental: (§2) 1 mg of the test substance (prodrug) was weighed into a 2 ml HPLC vial, and 1.5 ml of DMSO and 1 ml of water were added. To dissolve the substance, the sample vessel was placed into an ultrasound bath for approx. 10 seconds. 0.5 ml of rat plasma or human plasma at 37° C. was added to 0.5 ml of this solution. The sample was agitated and approx. 10 μl were taken for a first analysis (time t0). […] The sample was kept at 37° C. over the test period. Characterization and quantification were effected by HPLC.

[6] = Plasma stability in vitro, human plasma; assay type: in vitro ADME; conditions: 37°C
Experimental: as §2

Compound: Cc1cc(-c2nc(-c3ccc(OC(F)(F)F)cc3)no2)nn1Cc1cccc(N2CC(O)C2)c1 [Example 1, 1-{3-[(5-Methyl-3-{3-[4-(trifluoromethoxy)phenyl]-1,2,4-oxadiazol-5-yl}-1H-pyrazol-1-yl)methyl]phenyl}azetidin-3-ol]
- IC50 [1]: 0.7 nM
- AUCnorm (dose-normalized exposure) ([2]; p.o.): 0.43 kg·h/L
- AUCnorm of Example 1 after administration of prodrug Example 15 ([2]; p.o., prodrug Example 15, 1 mg/kg crystalline substance as tylose suspension in water): 0.35 kg·h/L
- bioavailability [2]: 68%
- % Example 1 active ingredient ([3]; pH 2, 37°C, after 12 h): 6%
- % Example 1 active ingredient ([3]; pH 4, 37°C, after 12 h): 9%
- % Example 1 active ingredient ([3]; pH 6.5, 37°C, 0 h): 3%
- % Example 1 active ingredient ([3]; pH 6.5, 37°C, 2 h): 7%
- % Example 1 active ingredient ([3]; pH 6.5, 37°C, 4 h): 10%
- % Example 1 active ingredient ([3]; pH 6.5, 37°C, 6 h): 13%
- % Example 1 active ingredient ([3]; pH 6.5, 37°C, 12 h): 22%
- % Example 1 active ingredient ([3]; pH 6.5, 37°C, 24 h): 35%
- % Example 1 active ingredient ([3]; pH 8, 37°C, after 12 h): 30%
- % Example 1 active ingredient ([3]; pH 10, 37°C, after 12 h): 78%

Compound: Cc1cc(-c2nc(-c3ccc(C4(C(F)(F)F)CC4)cc3)no2)nn1Cc1cccc(N2CCC(C#N)CC2)c1 [Example 12, 1-(3-{[5-Methyl-3-(3-{4-[1-(trifluoromethyl)cyclopropyl]phenyl}-1,2,4-oxadiazol-5-yl)-1H-pyrazol-1-yl]methyl}phenyl)piperidine-4-carbonitrile]
- IC50 [1]: 0.3 nM

Compound: Cc1ccc(Cn2nc(-c3nc(-c4ccc(OC(F)(F)F)cc4)no3)cc2C)cc1 [Example 1 in WO 2008/141731-A2, 5-[5-methyl-1-(4-methylbenzyl)-1H-pyrazol-3-yl]-3-[4-(trifluoromethoxy)phenyl]-1,2,4-oxadiazole, reference compound]
- IC50 ([1]; comparison compound): 30 nM
- clearance [4]: 6.67 mL/min/kg
- AUCnorm (dose-normalized exposure) ([2]; p.o.): 1.9 kg·h/L
- bioavailability [2]: 74%

Compound: Cc1cc(-c2nc(-c3ccc(C4(C(F)(F)F)CC4)cc3)no2)nn1Cc1cccc(N2CCC(O)CC2)c1 [Example 9, 1-(3-{[5-Methyl-3-(3-{4-[1-(trifluoromethyl)cyclopropyl]phenyl}-1,2,4-oxadiazol-5-yl)-1H-pyrazol-1-yl]methyl}phenyl)piperidin-4-ol]
- IC50 [1]: 0.5 nM

Compound: Cc1cc(-c2nc(-c3ccc(OC(F)(F)F)cc3)no2)nn1Cc1cccc(N2CC(OC(=O)CN(C)C)C2)c1 [Example 15, 1-{3-[(5-Methyl-3-{3-[4-(trifluoromethoxy)phenyl]-1,2,4-oxadiazol-5-yl}-1H-pyrazol-1-yl)methyl]phenyl}azetidin-3-yl N,N-dimethylglycinate]
- prodrug compound in plasma ([2]; p.o., 1 mg/kg as tylose suspension, all times examined): not detectable
- % Example 15 prodrug ([3]; pH 2, 37°C, after 12 h): 89%
- % Example 15 prodrug ([3]; pH 4, 37°C, after 12 h): 89%
- % Example 15 prodrug ([3]; pH 6.5, 37°C, 0 h): 94%
- % Example 15 prodrug ([3]; pH 6.5, 37°C, 2 h): 91%
- % Example 15 prodrug ([3]; pH 6.5, 37°C, 4 h): 87%
- % Example 15 prodrug ([3]; pH 6.5, 37°C, 6 h): 84%
- % Example 15 prodrug ([3]; pH 6.5, 37°C, 12 h): 73%
- % Example 15 prodrug ([3]; pH 6.5, 37°C, 24 h): 56%
- % Example 15 prodrug ([3]; pH 8, 37°C, after 12 h): 64%
- % Example 15 prodrug ([3]; pH 10, 37°C, after 12 h): 0%
- % Example 15 prodrug ([5]; 0 h): 95%
- % Example 15 prodrug ([5]; 0.5 h): 87%
- % Example 15 prodrug ([5]; 1 h): 80%
- % Example 15 prodrug ([5]; 1.5 h): 72%
- % Example 15 prodrug ([5]; 2 h): 69%
- % Example 15 prodrug ([5]; 4 h): 52%
- % Example 15 prodrug ([6]; 0 h): 97%
- % Example 15 prodrug ([6]; 0.5 h): 96%
- % Example 15 prodrug ([6]; 1 h): 93%
- % Example 15 prodrug ([6]; 1.5 h): 91%
- % Example 15 prodrug ([6]; 2 h): 89%
- % Example 15 prodrug ([6]; 4 h): 81%
- melting point: 117 °C

Compound: Cc1cc(-c2nc(-c3ccc(OC(F)(F)F)cc3)no2)nn1Cc1cccc(N2CCC(C#N)CC2)c1 [Example 11, 1-{3-[(5-Methyl-3-{3-[4-(trifluoromethoxy)phenyl]-1,2,4-oxadiazol-5-yl}-1H-pyrazol-1-yl)methyl]phenyl}piperidine-4-carbonitrile]
- IC50 [1]: 0.4 nM

Compound: Cc1cc(-c2nc(-c3ccc(OC(F)(F)F)cc3)no2)nn1Cc1cccc(N2CCC(O)CC2)c1 [Example 8, 1-{3-[(5-Methyl-3-{3-[4-(trifluoromethoxy)phenyl]-1,2,4-oxadiazol-5-yl}-1H-pyrazol-1-yl)methyl]phenyl}piperidin-4-ol]
- IC50 [1]: 0.6 nM

Compound: Cc1cc(-c2nc(-c3ccc(C(C)(C)C(F)(F)F)cc3)no2)nn1Cc1cccc(N2CCC(O)CC2)c1 [Example 10, 1-{3-[(5-Methyl-3-{3-[4-(1,1,1-trifluoro-2-methylpropan-2-yl)phenyl]-1,2,4-oxadiazol-5-yl}-1H-pyrazol-1-yl)methyl]phenyl}piperidin-4-ol]
- IC50 [1]: 0.4 nM

Compound: Cc1cc(-c2nc(-c3ccc(C(C)(C)C(F)(F)F)cc3)no2)nn1Cc1cccc(N2CC(O)C2)c1 [Example 3, 1-{3-[(5-Methyl-3-{3-[4-(1,1,1-trifluoro-2-methylpropan-2-yl)phenyl]-1,2,4-oxadiazol-5-yl}-1H-pyrazol-1-yl)methyl]phenyl}azetidin-3-ol]
- IC50 [1]: 0.6 nM

Compound: Cc1cc(-c2nc(-c3ccc(C4(C(F)(F)F)CC4)cc3)no2)nn1Cc1cccc(N2CC(O)C2)c1 [Example 2, 1-(3-{[5-Methyl-3-(3-{4-[1-(trifluoromethyl)cyclopropyl]phenyl}-1,2,4-oxadiazol-5-yl)-1H-pyrazol-1-yl]methyl}phenyl)azetidin-3-ol]
- IC50 [1]: 0.6 nM

Compound: Cc1cc(-c2nc(-c3ccc(SC(F)(F)F)cc3)no2)nn1Cc1cccc(N2CCC(O)CC2)c1 [Example 14, 1-(3-{[5-Methyl-3-(3-{4-[(trifluoromethyl)sulphanyl]phenyl}-1,2,4-oxadiazol-5-yl)-1H-pyrazol-1-yl]methyl}phenyl)piperidin-4-ol]
- IC50 [1]: 0.5 nM

Compound: Cc1cc(-c2nc(-c3ccc(C(C)(C)C(F)(F)F)cc3)no2)nn1Cc1cccc(N2CCC(C#N)CC2)c1 [Example 13, 1-{3-[(5-Methyl-3-{3-[4-(1,1,1-trifluoro-2-methylpropan-2-yl)phenyl]-1,2,4-oxadiazol-5-yl}-1H-pyrazol-1-yl)methyl]phenyl}piperidine-4-carbonitrile]
- IC50 [1]: 0.3 nM

— patent US20130172311A1, “Substituted heterocyclyl benzyl pyrazoles, and use thereof” (BAYER INTELLECTUAL PROPERTY GMBH, priority 2010, published 2013)
